Measured values: US20250129045A1, “SMALL MOLECULE PIM AND MTOR KINASE INHIBITOR AND METHODS OF USE THEREOF” (Arizona Board of Regents on Behalf of the University of …, priority 2022, published 2025)

Experiments:
Assay type in all cases: cell-based
Prostate Cancer Growth = assay: SAR studies using inhibition of prostate cancer growth as a readout; details: SAR by substituent position
PANC1 cells = assay: Reverse-phase protein array (RPPA) of PANC1 cells, Table 3; details: 6 h treatment, divided by zero-time value, average of triplicate
Experimental: To further examine how these compounds function to inhibit tumor growth, changes in both a wide variety of phosphoprotein and protein levels using reverse-phase protein arrays (RPPA) were evaluated. […] The values in the RPPA obtained at these two time points were divided by the value at time zero to allow an evaluation of the changes caused by each drug treatment.

mTORC = assay: Phosphorylation of mTORC substrates in PANC1 cells (Western blot); details: overnight incubation, FIG. 19
Experimental: Immunoblotting: Western blots were performed as described previously. Briefly, protein lysates (30 μg) were subjected to SDS-PAGE and transferred to nitrocellulose membranes. After blocking with 5% milk in TBST buffer for 30 min at room temperature, the membranes were incubated overnight at 4° C. with the Indicated primary antibody in 3% BSA in TBST. Specific proteins were detected with the corresponding HRP conjugated secondary antibody using enhanced chemiluminescence (GE Lifesciences, Piscataway, NJ).
(§1) Because of ease of growth, PANC1 pancreatic cancer cells were used to test the activity of derivatives of VBT-5445 (FIG. 14). […] Using a doxycycline inducible Pim kinase vector in these tumor cells, this inhibition of phosphorylation was proportional to the level of Pim in these cells (FIG. 9). […] Inhibition of mTORC1 is known to stimulate the feedback activation of mTORC2 leading to AKT phosphorylation. […] The effect of these compounds on mTORC1 and 2 was still evident in PC3-LN4 cells that contained a knockout (KO) using CRISPR/CAS9 of either TSC2 or DEPDC5 (FIG. 12, lanes 4-9). TSC2 KO activated the Rheb GTPase while DEPDC5 KO activated the RAG GTPase both of which stimulate mTORC1 activity. Thus, GRG compounds were capable of inhibiting mTORC1 activity even when this kinase was highly activated.

[1] = system: PANC1 pancreatic cancer cells; assay: Growth inhibition of PANC1 pancreatic cancer cells
Experimental: Cell growth assay: Tumor cells were seeded into 48 well plates (1000 cells/well) and treated with varied agents. The Incucyte real-time imaging system (Incucyte) was used to measure cell proliferation using a non-label cell monolayer confluence approach. The images were captured every 12 h. Graphs were generated using an integrated confluence metric as an alternative for cell numbers. At the end of the study cell growth was visualized by crystal violet staining.
as §1

O=c1c(CNCc2cccc(Br)n2)cc2ccc(Cl)cc2n1CCOc1ccccc1 [ZH-2-44]
Activity (inhibition of prostate cancer growth) (Prostate Cancer Growth): 1 active compound (methoxy)

Cc1ccnc(CNCc2cc3ccc(Cl)cc3n(CCOc3ccccc3)c2=O)c1 [GRG-1-96]
Activity (inhibition of prostate cancer growth) (Prostate Cancer Growth): 6 active compounds

COc1ccc(OCCn2c(=O)c(CNCc3cc(Cl)ccn3)cc3ccc(Cl)cc32)cc1 [GRG-1-167]
Activity (inhibition of prostate cancer growth) (Prostate Cancer Growth): substitution decreases activity

CC(C)n1nc(-c2cc3cc(O)ccc3[nH]2)c2c(N)ncnc21 [pp242, reference compound]
4EBP1S65, RPPA value after treatment / zero-time value (PANC1 cells): 0.22
4EBP1T70, RPPA value after treatment / zero-time value (PANC1 cells): 0.32
ATMS1981, RPPA value after treatment / zero-time value (PANC1 cells): 0.46
CICaspase3D175, RPPA value after treatment / zero-time value (PANC1 cells): 0.7
CofilinS3, RPPA value after treatment / zero-time value (PANC1 cells): 0.6
CrkIIY221, RPPA value after treatment / zero-time value (PANC1 cells): 1.57
ERKT202_Y204, RPPA value after treatment / zero-time value (PANC1 cells): 2.04
FAKY576_577, RPPA value after treatment / zero-time value (PANC1 cells): 0.81
FKHR-FOX01S256, RPPA value after treatment / zero-time value (PANC1 cells): 1.03
GSK3a_bS21_9, RPPA value after treatment / zero-time value (PANC1 cells): 1.09
HistoneH2AXS139, RPPA value after treatment / zero-time value (PANC1 cells): 1.19
HistoneH3S10, RPPA value after treatment / zero-time value (PANC1 cells): 0.64
IL-1bcleavedD116, RPPA value after treatment / zero-time value (PANC1 cells): 0.46
Jak1Y1022_1023, RPPA value after treatment / zero-time value (PANC1 cells): 0.71
MAPKpTEpY, RPPA value after treatment / zero-time value (PANC1 cells): 0.64
PDGFRbY751, RPPA value after treatment / zero-time value (PANC1 cells): 0.67
PP1aT320, RPPA value after treatment / zero-time value (PANC1 cells): 0.61
PaxillinY118, RPPA value after treatment / zero-time value (PANC1 cells): 0.9
RetY905, RPPA value after treatment / zero-time value (PANC1 cells): 0.25
S6RibosomalPS235_236, RPPA value after treatment / zero-time value (PANC1 cells): 0.34
S6RibosomalProtein S240_244, RPPA value after treatment / zero-time value (PANC1 cells): 0.66
SAPK_JNKT183_Y185, RPPA value after treatment / zero-time value (PANC1 cells): 1.07
Stat2Y690, RPPA value after treatment / zero-time value (PANC1 cells): 0.76
Stat3Y705, RPPA value after treatment / zero-time value (PANC1 cells): 0.51
Tyk2Y1054_1055, RPPA value after treatment / zero-time value (PANC1 cells): 0.51
VEGFR2Y1175, RPPA value after treatment / zero-time value (PANC1 cells): 0.34
YAPS127, RPPA value after treatment / zero-time value (PANC1 cells): 0.76
cAbIY245, RPPA value after treatment / zero-time value (PANC1 cells): 1.54
cKitY703, RPPA value after treatment / zero-time value (PANC1 cells): 1.09
p38MAPKT180_Y182, RPPA value after treatment / zero-time value (PANC1 cells): 0.59
p70S6KS371, RPPA value after treatment / zero-time value (PANC1 cells): 0.39
p70S6KT389, RPPA value after treatment / zero-time value (PANC1 cells): 0.29
p90RSKS380, RPPA value after treatment / zero-time value (PANC1 cells): 0.91

O=c1c(COCc2ccccc2)cc2ccc(Cl)cc2n1CCOc1ccccc1 [GRG-1-60]
block of phosphorylation of mTORC substrates (AKT, 4E-BP1, S6) (mTORC): not
Activity (inhibition of prostate cancer growth) (Prostate Cancer Growth): Contributes to loss of activity
growth inhibitory activity against PANC1 pancreatic cancer cells [1]: inactive

CN(Cc1ccccn1)Cc1cc2ccc(Cl)cc2n(CCOc2ccccc2)c1=O [GRG-1-61]
Activity (inhibition of prostate cancer growth) (Prostate Cancer Growth): Reduces activity to some extent

O=c1c(CNCc2ncccc2F)cc2ccc(Cl)cc2n1CCOc1ccccc1 [ZH-2-50]
Activity (inhibition of prostate cancer growth) (Prostate Cancer Growth): Less active

COc1ccc(OCCn2c(=O)c(CNCc3ccccn3)cc3ccc(Cl)cc32)cc1 [GRG-1-70]
Activity (inhibition of prostate cancer growth) (Prostate Cancer Growth): Brings activity, though 4-chloro

O=c1c(COCc2ccccn2)cc2ccc(Cl)cc2n1CCOc1ccccc1 [GRG-1-63]
Activity (inhibition of prostate cancer growth) (Prostate Cancer Growth): Contributes to loss of activity

COc1ccc(CNCc2cc3ccc(Cl)cc3n(CCOc3ccccc3)c2=O)nc1 [GRG-1-27]
Activity (inhibition of prostate cancer growth) (Prostate Cancer Growth): 2 active compounds

COc1ccnc(CNCc2cc3ccc(Cl)cc3n(CCOc3ccccc3)c2=O)c1 [GRG-1-95]
Activity (inhibition of prostate cancer growth) (Prostate Cancer Growth): 6 active compounds

O=c1c(CNCc2ccc(C(F)(F)F)cn2)cc2ccc(Cl)cc2n1CCOc1ccccc1 [GRG-1-28]
Activity (inhibition of prostate cancer growth) (Prostate Cancer Growth): 2 active compounds

Cc1cccc(CNCc2cc3ccc(Cl)cc3n(CCOc3ccccc3)c2=O)n1 [GRG-1-31]
block of phosphorylation of mTORC substrates (AKT, 4E-BP1, S6) (mTORC): block the phosphorylation of mTORC substrates
growth inhibitory activity against PANC1 pancreatic cancer cells [1]: most active

COc1ccc(OCCn2c(=O)c(CNCc3cc(C(F)(F)F)ccn3)cc3ccc(Cl)cc32)cc1 [GRG-1-127]
Activity (inhibition of prostate cancer growth) (Prostate Cancer Growth): Brings activity, though 4-chloro

COc1ccc(OCCn2c(=O)c(CNCc3cc(Br)ccn3)cc3ccc(Cl)cc32)cc1 [GRG-1-166]
Activity (inhibition of prostate cancer growth) (Prostate Cancer Growth): Brings activity, though 4-chloro

O=c1c(CNCc2ccccn2)cc2ccc(Cl)cc2n1CCSc1ccccc1 [GRG-1-104, 7-chloro-1-(2-(phenylthio)ethyl)-3-(((pyridin-2-ylmethyl)amino)methyl)quinolin-2 (1H)-one]
block of phosphorylation of mTORC substrates (AKT, 4E-BP1, S6) (mTORC): block the phosphorylation of mTORC substrates
Activity (inhibition of prostate cancer growth) (Prostate Cancer Growth): Active
growth inhibitory activity against PANC1 pancreatic cancer cells [1]: most active

O=C(NCc1cc2ccc(Cl)cc2n(CCOc2ccccc2)c1=O)c1ccccn1 [GRG-1-94, N-((7-chloro-2-oxo-1-(2-phenoxyethyl)-1,2-dihydroquinolin-3-yl)methyl) picolinamide]
block of phosphorylation of mTORC substrates (AKT, 4E-BP1, S6) (mTORC): not
growth inhibitory activity against PANC1 pancreatic cancer cells [1]: inactive

O=c1c(CNCc2cc(Br)ccn2)cc2ccc(N3CCOCC3)cc2n1CCOc1ccccc1 [GRG-02-24]
Activity (inhibition of prostate cancer growth) (Prostate Cancer Growth): Contributes to loss of activity
